In patent US20260216093A1, “COMPOSITIONS AND METHODS FOR ENHANCED DRUG LOADING INTO LIPID-BASED CARRIERS” (UNIVERSITY OF NOTRE DAME DU LAC, priority 2023, published 2026):

Experiments:
tau fibrils = tau fibrils (Homo sapiens, UniProt P10636); experiment: Tau biosensor seeding (propagation) assay; format: cell-based; details: inhibitors added 1 h after tau fibrils; D-GQDs 0.1-0.8 μM, Qal:D-GQDs 10:1, 6:1, 3:1; bare Qal 1.5 μM to 9 μM
Protocol: To study the effect of Qal-D-GQD-Exo on tau propagation, a tau biosensor seeding assay (FIG. 35) was used to investigate whether the Qal-D-GQD-Exo could block the cellular transmission of exogeneous mature tau fibrils using three different ratios of Qal to D-GQDs (10:1, 6:1, and 3:1) and concentrations of D-GQDs at 0.8, 0.4, 0.2, and 0.1 μM.

[1] = test system: cervical carcinoma cells (Hela); experiment: CCK-8 cell proliferation assay with Exo-Dox; format: cell-based, human; details: 24 h
Protocol: (§1) Cell viability was assessed using a Cell Counting Kit-8 (CCK-8 assay, Enzo). In brief, 3T3 and HepG2 cells were seeded into a 96-well flat culture plate (Corning). After being cultured overnight, the cells were washed with FBS-free EMEM and incubated with a specific concentration of sEV and exosomal relative in FBS-free medium at 37° C. for 12, 24, 36, or 48 h. The cells were then washed three times with sterilized PBS and incubated with fresh medium containing 10% FBS overnight. The cells were then washed with PBS, and FBS-free EMEM […] before adding assay reagent. After incubation for 20 min at 37° C., the cell proliferation and cytotoxicity were measured by absorbance at 460 nm. The background was measured by 3T3 and HepG2 cells cultured in FBS-free EMEM only.
(§2) The ability of Exo-Dox to inhibit cancer cell proliferation in vitro was then analyzed. Human hepatocellular carcinoma cells (HepG2) and cervical carcinoma cells (Hela) were treated with Exo-Dox for 24 h, while cells without treatment, treated with control sEVs, and D-Cys-GQDs mixed with free Dox are negative controls. Cell viability of all samples was measured by CCK-8 assay. […] Dox-loaded sEVs by sonication method were not included in the cell viability tests due to low yield of loaded sEVs that was caused by the damage of physical structure of sEVs by sonication (FIG. 17A-B).

[2] = test system: Human hepatocellular carcinoma cells (HepG2); experiment: CCK-8 cell proliferation assay with Exo-Dox; format: cell-based; details: 24 h
Protocol: as §1, §2

Sequence of tau fibrils (P10636 whole entry): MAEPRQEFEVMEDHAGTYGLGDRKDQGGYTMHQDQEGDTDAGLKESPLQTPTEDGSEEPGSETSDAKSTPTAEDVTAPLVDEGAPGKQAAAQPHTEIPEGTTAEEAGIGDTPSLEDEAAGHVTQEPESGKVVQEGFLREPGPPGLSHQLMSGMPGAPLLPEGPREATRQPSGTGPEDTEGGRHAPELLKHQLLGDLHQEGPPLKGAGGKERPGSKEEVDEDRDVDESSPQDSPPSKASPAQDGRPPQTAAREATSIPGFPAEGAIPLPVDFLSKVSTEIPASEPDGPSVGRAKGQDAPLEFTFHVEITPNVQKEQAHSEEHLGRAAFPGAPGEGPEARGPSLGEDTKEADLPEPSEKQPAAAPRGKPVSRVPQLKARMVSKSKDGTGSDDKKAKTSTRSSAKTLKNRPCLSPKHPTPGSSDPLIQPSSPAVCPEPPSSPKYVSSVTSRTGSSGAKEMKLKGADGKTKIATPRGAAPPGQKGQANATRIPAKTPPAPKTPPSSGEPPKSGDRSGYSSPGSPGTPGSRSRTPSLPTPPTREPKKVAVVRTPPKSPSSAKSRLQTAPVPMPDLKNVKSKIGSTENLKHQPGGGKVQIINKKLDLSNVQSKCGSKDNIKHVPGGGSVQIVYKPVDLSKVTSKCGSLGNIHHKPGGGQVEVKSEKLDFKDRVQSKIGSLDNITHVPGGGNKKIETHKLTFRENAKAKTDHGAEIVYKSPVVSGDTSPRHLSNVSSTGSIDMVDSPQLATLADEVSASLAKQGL

inhibition of intracellular tau aggregation, at most (tau fibrils) | Compound | inhibition of cell proliferation [1] [%] | inhibition of cell proliferation [2] [%]
did not show any inhibitory efficiency | Qal: tau-specific N-amino peptide (NAP), amino acid sequence CGTHKLTFRASHAVQIVYKGC (SEQ ID NO: 2) | – | –
– | COc1cccc2c1C(=O)c1c(O)c3c(c(O)c1C2=O)C[C@@](O)(C(=O)CO)C[C@@H]3O[C@H]1C[C@H](N)[C@H](O)[C@H](C)O1 [free Dox, Doxorubicin] | 27.7±5.0 | 28.3±5.2
